System: NCI/ADR-RES (drug-resistant ovarian carcinoma) cells
Test: MTT cytotoxicity assay, NCI/ADR-RES
Type: cell-based, human
Protocol: All cells were cultured using standard culture conditions at 37° C., 5% CO2, and 95% humidity. A549 (CCL-185), OVCAR-3 (HTB-161), T24 (HTB-4), and NCI/ADR-RES were cultured in RPMI-1640 supplemented with 10% v/v fetal bovine serum (FBS), 2 mM L-glutamine (L-Gln), 10,000 units penicillin/mL, 10 mg/mL streptomycin, and 25 μg/mL amphotericin B. HUVEC (PCS-100-010) cells were cultured in Vascular Cell Basal Media (PCS-100-030) supplemented with an Endothelial Cell Growth Kit-VEGF (PCS-100-041) and 10 μg/mL gentamycin in culture flasks coated with 0.1% gelatin by incubating at 37° C. for 15 min. NL20 (CRL-2503) cells were cultured in Ham's F12 supplemented with 1.5 g/L sodium bicarbonate, 2.7 g/L glucose, 2.0 mM L-glutamine, 0.1 mM nonessential amino acids, 0.005 mg/ml insulin, 10 ng/ml epidermal growth factor, 0.001 mg/ml transferrin, 500 ng/ml hydrocortisone and 4% fetal bovine serum, as advised by American Type Culture Collection (ATCC).
Viability was calculated by comparing to an untreated control.
All experiments were performed with n>6.
Cell viability experiments were completed n>6 in two independent experiments and analyzed using GraphPad Prism 8 to fit curves and calculate IC50 values using inhibitor vs. normalized response non-linear regression model. IC50 values are reported as mean values±standard deviation. […] Pore size frequency distribution was completed by ImageJ FIJI on 4 independent cells and n=30 pores from SEM images. UV-Vis OD600 and CD spectra are means of 5 and 3 replicates, respectively and reported as mean±standard deviation. Individual UV-Vis and CD spectra, as well as fluorescent confocal and TEM micrographs, shown are representative plots from three individual experiments. CD data is with a variance in ellipticity of 0.2 millidegrees at each wavelength. Relative fluorescence data calculated from fluorescent confocal images represents the average of 10 independent measurements±standard deviation. For spheroid volume analysis, a Kruskal-Wallis test and Dunn's multiple comparisons test was performed using GraphPad Prism 8.

H-KRWHWWRRHWVVW-NH2 [MAD1]
IC50 (48 hours treatment, MTT, read-out: Cancerous (IC50, μM) NCl/ADR-RES): 85.6 µM | Therapeutic Index NCl/ADR-RES (IC50-HUVEC/IC50-NCI/ADR-RES): 1.2 | cytotoxic activity against NCI/ADR-RES (result in words): moderate activity

From patent publication US11571454B2, “Anticancer peptides that synergistically enhance chemotherapeutic potency” (The Penn State Research Foundation, priority 2017, dated 2023)
